From ChEMBL document CHEMBL1201861, “Genomics of Drug Sensitity in Cancer screening data, Wellcome Trust Sanger Institute”

Legend:
Assay in all cases: cells
Assay type in all cases: functional, cell-based
TCC-SUP = settings: Homo sapiens;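 note: growth inhibition of TCC-SUP cells, read out with a cell viability assay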
Description: SANGER: Inhibition of human TCCSUP cell growth in a cell viability assay.

AGS = settings: Homo sapiens;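 note: growth inhibition of AGS cells, determined with a cell viability assay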
Description: SANGER: Inhibition of human AGS cell growth in a cell viability assay.

MFE-280 = settings: Homo sapiens;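 note: growth inhibition of MFE-280 cells, determined with a cell viability readout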
Description: SANGER: Inhibition of human MFE-280 cell growth in a cell viability assay.

NCI-H596 = settings: Homo sapiens;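 note: growth inhibition of NCI-H596 cells, read out with a cell viability assay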
Description: SANGER: Inhibition of human NCI-H596 cell growth in a cell viability assay.

LCLC-97TM1 = settings: Homo sapiens;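 note: cell viability assay measuring growth inhibition of human LCLC-97TM1 cells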
Description: SANGER: Inhibition of human LCLC-97TM1 cell growth in a cell viability assay.

EFO-27 = settings: Homo sapiens;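 note: growth inhibition of EFO-27 cells, read out with a cell viability assay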
Description: SANGER: Inhibition of human EFO-27 cell growth in a cell viability assay.

SW48 = settings: Homo sapiens;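 note: growth inhibition of SW48 cells, read out with a cell viability assay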
Description: SANGER: Inhibition of human SW48 cell growth in a cell viability assay.

Detroit 562 = settings: Homo sapiens;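 note: growth inhibition of human Detroit 562 cells, read out by a cell viability assay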
Description: SANGER: Inhibition of human Detroit562 cell growth in a cell viability assay.

EW-22 = settings: Homo sapiens;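 note: growth inhibition of the EW-22 cell line, measured with a cell viability readout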
Description: SANGER: Inhibition of human EW-22 cell growth in a cell viability assay.

EGI-1 = settings: Homo sapiens;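 note: cell viability readout used to gauge growth inhibition of EGI-1 cells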
Description: SANGER: Inhibition of human EGI-1 cell growth in a cell viability assay.

SW1783 = settings: Homo sapiens;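 note: cell growth inhibition measured with a viability assay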
Description: SANGER: Inhibition of human SW1783 cell growth in a cell viability assay.

A-427 = settings: Homo sapiens;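 note: growth inhibition of human A-427 cells, read out by a cell viability assay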
Description: SANGER: Inhibition of human A427 cell growth in a cell viability assay.

IGR-1 = settings: Homo sapiens;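 note: growth inhibition of human IGR-1 cells, read out with a cell viability assay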
Description: SANGER: Inhibition of human IGR-1 cell growth in a cell viability assay.

SN12C = settings: Homo sapiens;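 note: growth inhibition of human SN12C cells, measured by a cell viability assay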
Description: SANGER: Inhibition of human SN12C cell growth in a cell viability assay.

RPMI-7951 = settings: Homo sapiens
Description: SANGER: Inhibition of human RPMI-7951 cell growth in a cell viability assay.

Capan-2 = settings: Homo sapiens;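 note: Capan-2 cell growth inhibition, read out with a viability assay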
Description: SANGER: Inhibition of human Capan-2 cell growth in a cell viability assay.

DU-145 = settings: Homo sapiens
Description: SANGER: Inhibition of human DU-145 cell growth in a cell viability assay.

G-402 = settings: Homo sapiens
Description: SANGER: Inhibition of human G-402 cell growth in a cell viability assay.

KP-N-YN = settings: Homo sapiens;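 note: growth inhibition of KP-N-YN cells, read out with a cell viability assay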
Description: SANGER: Inhibition of human KP-N-YN cell growth in a cell viability assay.

LCLC-103H cell line = settings: Homo sapiens
Description: SANGER: Inhibition of human LCLC-103H cell growth in a cell viability assay.

HN = settings: Homo sapiens
Description: SANGER: Inhibition of human HN cell growth in a cell viability assay.

HGC-27 = settings: Homo sapiens;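 note: growth inhibition of human HGC-27 cells, read out in a cell viability assay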
Description: SANGER: Inhibition of human HGC-27 cell growth in a cell viability assay.

ME-180 = settings: Homo sapiens;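 note: cell viability assay measuring growth inhibition of ME-180 cells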
Description: SANGER: Inhibition of human ME-180 cell growth in a cell viability assay.

SJRH30 = settings: Homo sapiens;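 note: growth inhibition of human SJRH30 cells, read out with a cell viability assay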
Description: SANGER: Inhibition of human SJRH30 cell growth in a cell viability assay.

HCT-116 = settings: Homo sapiens
Description: SANGER: Inhibition of human HCT-116 cell growth in a cell viability assay.

NCI-H1693 = settings: Homo sapiens;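 note: growth inhibition of the human cell line, read out with a cell viability assay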
Description: SANGER: Inhibition of human NCI-H1693 cell growth in a cell viability assay.

SKG-IIIa = settings: Homo sapiens;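 note: cell growth inhibition, read out with a cell viability assay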
Description: SANGER: Inhibition of human SKG-IIIa cell growth in a cell viability assay.

MCF7 = settings: Homo sapiens;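 note: growth inhibition of human MCF7 cells, read out with a cell viability assay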
Description: SANGER: Inhibition of human MCF7 cell growth in a cell viability assay.

HT55 = settings: Homo sapiens;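 note: cell viability readout measuring growth inhibition of human HT55 cells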
Description: SANGER: Inhibition of human HT55 cell growth in a cell viability assay.

KOSC-2 = settings: Homo sapiens;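 note: growth inhibition of KOSC-2 cells, read out by a cell viability assay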
Description: SANGER: Inhibition of human KOSC-2 cell growth in a cell viability assay.

OE33 = settings: Homo sapiens;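 note: growth inhibition of human OE33 cells, measured by a cell viability assay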
Description: SANGER: Inhibition of human OE33 cell growth in a cell viability assay.

MHH-ES-1 = settings: Homo sapiens;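 note: cell growth inhibition measured by a cell viability assay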
Description: SANGER: Inhibition of human MHH-ES-1 cell growth in a cell viability assay.

MEL-HO = settings: Homo sapiens
Description: SANGER: Inhibition of human MEL-HO cell growth in a cell viability assay.

COLO-678 = settings: Homo sapiens
Description: SANGER: Inhibition of human COLO-678 cell growth in a cell viability assay.

D-392MG = settings: Homo sapiens
ESS-1 = settings: Homo sapiens;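 note: growth inhibition of human ESS-1 cells, read out by a cell viability assay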
Description: SANGER: Inhibition of human ESS-1 cell growth in a cell viability assay.

NCI-H2342 = settings: Homo sapiens;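 note: growth inhibition of the cancer cell line, determined with a cell viability assay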
Description: SANGER: Inhibition of human NCI-H2342 cell growth in a cell viability assay.

CWR22R = settings: Homo sapiens, 22Rv1;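 note: growth inhibition of 22Rv1 cells, read out with a cell viability assay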
Description: SANGER: Inhibition of human 22RV1 cell growth in a cell viability assay.

MDA-MB-453 = settings: Homo sapiens
Description: SANGER: Inhibition of human MDA-MB-453 cell growth in a cell viability assay.

HTC-C3 = settings: Homo sapiens;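 note: inhibition of cell growth, read out with a cell viability assay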
Description: SANGER: Inhibition of human HTC-C3 cell growth in a cell viability assay.

LN-405 = settings: Homo sapiens
Description: SANGER: Inhibition of human LN-405 cell growth in a cell viability assay.

A673 = settings: Homo sapiens;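 note: growth inhibition of human A673 cells, read out through a cell viability assay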
Description: SANGER: Inhibition of human A673 cell growth in a cell viability assay.

SK-MEL-24 = settings: Homo sapiens;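 note: growth inhibition read out by a cell viability assay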
Description: SANGER: Inhibition of human SK-MEL-24 cell growth in a cell viability assay.

UACC-893 = settings: Homo sapiens
Description: SANGER: Inhibition of human UACC-893 cell growth in a cell viability assay.

UO-31 = settings: Homo sapiens;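 note: cell viability assay measuring inhibition of cell growth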
Description: SANGER: Inhibition of human U031 cell growth in a cell viability assay.

MKN-28 = settings: Homo sapiens;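 note: cell viability assay read-out, IC50 reflects suppression of growth of human MKN-28 cells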
Description: SANGER: Inhibition of human MKN28 cell growth in a cell viability assay.

Measured: IC50

NC1(c2ccc(-c3nc4ccn5c(=O)[nH]nc5c4cc3-c3ccccc3)cc2)CCC1 [MK-2206]
2.72 µM: AGS
2.86 µM: MCF7
3.71 µM: G-402
1.57 µM: ME-180
0.568 µM: HGC-27
3.69 µM: SJRH30
0.647 µM: DU-145
0.965 µM: MFE-280
not listed: SK-MEL-24 | UACC-893 | UO-31 | MKN-28
> 4 µM: all other assays above

O=C(NCCCNc1nc(Nc2cccc(NC(=O)N3CCCC3)c2)ncc1I)c1cccs1 [BX-795]
3.07 µM: KOSC-2
3.89 µM: Detroit 562
4.99 µM: HCT-116
2.12 µM: HN
2.73 µM: MHH-ES-1
3.91 µM: EW-22
4.07 µM: LCLC-103H cell line
3.39 µM: ME-180
3.54 µM: SW1783
1.47 µM: G-402
2.56 µM: AGS
1.74 µM: A-427
2.02 µM: SW48
2.57 µM: MFE-280
3.19 µM: RPMI-7951
> 5 µM: all other assays above

O=C1NC(=O)c2c1c(-c1ccccc1Cl)cc1[nH]c3ccc(O)cc3c21
1.3 µM: HN
0.995 µM: HTC-C3
0.161 µM: DU-145
> 2 µM: all other assays above
